Here are results for three compounds from ChEMBL document CHEMBL3046781, “Resistance of Helicoverpa assulta (Guenée) (Lepidoptera: Noctuidae) to fenvalerate, phoxim and methomyl in China” (2009).

Common to all, as to type: functional
Assay [1] relates to Helicoverpa assulta. Put plainly: Resistance factor, ratio of LD50 for sixth-instar larvae of Helicoverpa assulta YN7 to LD50 for sixth-instar larvae of Helicoverpa assulta at 1.8 to 183360 mg/l.
In assay [2] the test system is Helicoverpa assulta. Put plainly: Insecticidal activity against sixth-instar larvae of Helicoverpa assulta GZ3 at 1.8 to 183360 mg/l after 48 hr by chi-squared analysis.
Assay [3] has as its system Helicoverpa assulta. Description: Resistance factor, ratio of LD50 for sixth-instar larvae of Helicoverpa assulta GZ3 to LD50 for sixth-instar larvae of Helicoverpa assulta at 1.8 to 183360 mg/l.
The test system of assay [4] is Helicoverpa assulta. Description: Insecticidal activity against sixth-instar larvae of Helicoverpa assulta SD1 at 1.8 to 183360 mg/l after 48 hr by chi-squared analysis.
In assay [5] the test system is Helicoverpa assulta. Description: Insecticidal activity against sixth-instar larvae of Helicoverpa assulta HN2 at 1.8 to 183360 mg/l after 48 hr by chi-squared analysis.
For assay [6], the system named is Helicoverpa assulta. Put plainly: Resistance factor, ratio of LD50 for sixth-instar larvae of Helicoverpa assulta FJ3 to LD50 for sixth-instar larvae of Helicoverpa assulta at 1.8 to 183360 mg/l.
Assay [7] has as its system Helicoverpa assulta. Put plainly: Insecticidal activity against sixth-instar larvae of Helicoverpa assulta GZ1 at 1.8 to 183360 mg/l after 48 hr by chi-squared analysis.
Assay [8] relates to Helicoverpa assulta. Description: Resistance factor, ratio of LD50 for sixth-instar larvae of Helicoverpa assulta SD2 to LD50 for sixth-instar larvae of Helicoverpa assulta at 1.8 to 183360 mg/l.
Assay [9] deals with Helicoverpa assulta. Put plainly: Insecticidal activity against sixth-instar larvae of Helicoverpa assulta HN1 at 1.8 to 183360 mg/l after 48 hr by chi-squared analysis.
In assay [10] the test system is Helicoverpa assulta. Put plainly: Insecticidal activity against sixth-instar larvae of Helicoverpa assulta HB1 at 1.8 to 183360 mg/l after 48 hr by chi-squared analysis.
The test system of assay [11] is Helicoverpa assulta. Description: Resistance factor, ratio of LD50 for sixth-instar larvae of Helicoverpa assulta YN5 to LD50 for sixth-instar larvae of Helicoverpa assulta at 1.8 to 183360 mg/l.
The subject of assay [12] is Helicoverpa assulta. Put plainly: Resistance factor, ratio of LD50 for sixth-instar larvae of Helicoverpa assulta GZ2 to LD50 for sixth-instar larvae of Helicoverpa assulta at 1.8 to 183360 mg/l.
Assay [13] relates to Helicoverpa assulta. Description: Insecticidal activity against sixth-instar larvae of Helicoverpa assulta AH2 at 1.8 to 183360 mg/l after 48 hr by chi-squared analysis.
The subject of assay [14] is Helicoverpa assulta. Put plainly: Resistance factor, ratio of LD50 for sixth-instar larvae of Helicoverpa assulta SD1 to LD50 for sixth-instar larvae of Helicoverpa assulta at 1.8 to 183360 mg/l.
Assay [15] relates to Helicoverpa assulta. Description: Insecticidal activity against sixth-instar larvae of Helicoverpa assulta HB1 at 21 to 3390 mg/l after 48 hr by chi-squared analysis.
Assay [16] relates to Helicoverpa assulta. Put plainly: Resistance factor, ratio of LD50 for sixth-instar larvae of Helicoverpa assulta FJ1 to LD50 for sixth-instar larvae of Helicoverpa assulta at 21 to 3390 mg/l.
For assay [17], the system named is Helicoverpa assulta. Description: Insecticidal activity against sixth-instar larvae of Helicoverpa assulta YN1 at 21 to 3390 mg/l after 48 hr by chi-squared analysis.
The subject of assay [18] is Helicoverpa assulta. Description: Insecticidal activity against sixth-instar larvae of Helicoverpa assulta HB2 at 21 to 3390 mg/l after 48 hr by chi-squared analysis.
In assay [19] the test system is Helicoverpa assulta. Description: Insecticidal activity against sixth-instar larvae of Helicoverpa assulta GZ1 at 21 to 3390 mg/l after 48 hr by chi-squared analysis.
Assay [20] relates to Helicoverpa assulta. Description: Insecticidal activity against sixth-instar larvae of Helicoverpa assulta GZ5 at 21 to 3390 mg/l after 48 hr by chi-squared analysis.
The test system of assay [21] is Helicoverpa assulta. Description: Resistance factor, ratio of LD50 for sixth-instar larvae of Helicoverpa assulta HN1 to LD50 for sixth-instar larvae of Helicoverpa assulta at 21 to 3390 mg/l.
Assay [22] has as its system Helicoverpa assulta. Put plainly: Insecticidal activity against sixth-instar larvae of Helicoverpa assulta AH2 at 21 to 3390 mg/l after 48 hr by chi-squared analysis.
The test system of assay [23] is Helicoverpa assulta. Put plainly: Insecticidal activity against sixth-instar larvae of Helicoverpa assulta YN4 at 39 to 12630 mg/l after 48 hr by chi-squared analysis.
Assay [24] has as its system Helicoverpa assulta. Description: Resistance factor, ratio of LD50 for sixth-instar larvae of Helicoverpa assulta FJ3 to LD50 for sixth-instar larvae of Helicoverpa assulta at 39 to 12630 mg/l.
Assay [25] relates to Helicoverpa assulta. Put plainly: Resistance factor, ratio of LD50 for sixth-instar larvae of Helicoverpa assulta YN3 to LD50 for sixth-instar larvae of Helicoverpa assulta at 39 to 12630 mg/l.
The test system of assay [26] is Helicoverpa assulta. Description: Insecticidal activity against sixth-instar larvae of Helicoverpa assulta YN3 at 39 to 12630 mg/l after 48 hr by chi-squared analysis.
The subject of assay [27] is Helicoverpa assulta. Description: Resistance factor, ratio of LD50 for sixth-instar larvae of Helicoverpa assulta SD1 to LD50 for sixth-instar larvae of Helicoverpa assulta at 39 to 12630 mg/l.
The test system of assay [28] is Helicoverpa assulta. Description: Insecticidal activity against sixth-instar larvae of Helicoverpa assulta YN8 at 39 to 12630 mg/l after 48 hr by chi-squared analysis.
Assay [29] relates to Helicoverpa assulta. Description: Resistance factor, ratio of LD50 for sixth-instar larvae of Helicoverpa assulta YN7 to LD50 for sixth-instar larvae of Helicoverpa assulta at 39 to 12630 mg/l.
For assay [30], the system named is Helicoverpa assulta. Description: Resistance factor, ratio of LD50 for sixth-instar larvae of Helicoverpa assulta YN4 to LD50 for sixth-instar larvae of Helicoverpa assulta at 39 to 12630 mg/l.
Assay [31] deals with Helicoverpa assulta. Description: Insecticidal activity against sixth-instar larvae of Helicoverpa assulta YN7 at 39 to 12630 mg/l after 48 hr by chi-squared analysis.
For assay [32], the system named is Helicoverpa assulta. Put plainly: Resistance factor, ratio of LD50 for sixth-instar larvae of Helicoverpa assulta FJ2 to LD50 for sixth-instar larvae of Helicoverpa assulta at 39 to 12630 mg/l.
For assay [33], the system named is Helicoverpa assulta. Description: Insecticidal activity against sixth-instar larvae of Helicoverpa assulta HN1 at 39 to 12630 mg/l after 48 hr by chi-squared analysis.
In assay [34] the test system is Helicoverpa assulta. Description: Resistance factor, ratio of LD50 for sixth-instar larvae of Helicoverpa assulta HB1 to LD50 for sixth-instar larvae of Helicoverpa assulta at 39 to 12630 mg/l.

As usually defined, the LD50 is the dose at which mortality reaches 50%. The low end stands for a more toxic substance, the high end for a less toxic substance. With `CC(C)C(C(=O)OC(C#N)c1cccc(Oc2ccccc2)c1)c1ccc(Cl)cc1` (configuration not stated) [FENVALERATE], the Ratio in [1] turned out to be 1537; in [3], 824; in assay [6], 9.06; in assay [8] it was 12; in [11], 8816; in assay [12], 1042. Besides, the Ratio in assay [14] is given as 9.8. Moreover, the LD90 in [2] turned out to be 725 µg/g; in [4], 14.8 µg/g; in [5], 7.63 µg/g; in [7] it was 1043 µg/g; in [9] it was 23.1 µg/g; in assay [10], 7.34 µg/g. Besides, the LD90 in assay [13] amounted to 259 µg/g. The LD50 is 133 mg/kg in assay [2] (Helicoverpa assulta, GZ3, 48 h); 1.59 mg/kg in [4] (Helicoverpa assulta, SD1, 48 h); 1.17 mg/kg in assay [5] (Helicoverpa assulta, HN2, 48 h); 301 mg/kg in assay [7] (Helicoverpa assulta, GZ1, 48 h); 10.5 mg/kg in assay [9] (Helicoverpa assulta, HN1, 48 h); 0.944 mg/kg in [10] (Helicoverpa assulta, HB1, 48 h). The compound further registered an LD50 in assay [13] (Helicoverpa assulta, AH2, 48 h) of 67.3 mg/kg.
`CNC(=O)ON=C(C)SC` [METHOMYL]: the LD90 in [15] is 27.6 µg/g; in [17], 225 µg/g; in assay [18] it was 108 µg/g; in assay [19], 131 µg/g; in assay [20], 64.6 µg/g; in [22], 59.6 µg/g. In addition, the LD50 in assay [15] (Helicoverpa assulta, HB1, 48 h) came out at 12.2 mg/kg; in assay [17] (Helicoverpa assulta, YN1, 48 h) it was 45.6 mg/kg; in assay [18] (Helicoverpa assulta, HB2, 48 h) it was 15.8 mg/kg; in assay [19] (Helicoverpa assulta, GZ1, 48 h), 41.8 mg/kg; in [20] (Helicoverpa assulta, GZ5, 48 h), 21 mg/kg; in [22] (Helicoverpa assulta, AH2, 48 h), 22.1 mg/kg. The values for the Ratio in assay [16] and in assay [21] were 14.6 and 4.48, respectively.
For `CCOP(=S)(OCC)O/N=C(\C#N)c1ccccc1` [PHOXIM], the LD90 in [23] is 94 µg/g; in [26], 56.4 µg/g; in [28], 105 µg/g; in assay [31], 131 µg/g; in assay [33], 23.1 µg/g. Also, the LD50 in assay [23] (Helicoverpa assulta, YN4, 48 h) turned out to be 39.6 mg/kg; in [26] (Helicoverpa assulta, YN3, 48 h), 29.2 mg/kg; in assay [28] (Helicoverpa assulta, YN8, 48 h), 40.3 mg/kg; in assay [31] (Helicoverpa assulta, YN7, 48 h), 41.8 mg/kg; in assay [33] (Helicoverpa assulta, HN1, 48 h), 10.5 mg/kg. Besides, the Ratio is 8.15 in [24]; 12.5 in [25]; 5.09 in assay [27]; 17.9 in [29]; 16.9 in [30]; 9.41 in [32]. Further, in assay [34], the Ratio is 3.49.
